# Reference: US11807625B2, “Capsid inhibitors for the prevention of HIV” (Gilead Sciences, Inc., priority 2019, dated 2023)
# Where two headings read alike, the source gives them in different places.
# Test: PK of compound of Formula (Ia) after single subcutaneous dose of solution formulations in Wistar Han rats
# Assay type: in vivo
# Settings: male, Wistar Han, rat, plasma, mean ± SD, SC 50 mg/kg; for AUC(0-t) / Cmax: sc, 50 mg/kg
# Procedure: Formulations containing the compound of Formula (Ia), or a pharmaceutically acceptable salt thereof, were prepared as solutions and optionally administered subcutaneously or intramuscularly to rats, rabbits, and/or dogs.
# (§1) A solution of about 400 mg/mL of the compound of Formula (Ia) having 19.14 w/w % water, 40.66 w/w % PEG 300, 35.20 w/w % of a sodium salt of a compound of Formula (Ia), and 5.00% ethanol was prepared. The solution was administered subcutaneously to male Wistar Han rats at a dose level of about 50 mg/kg and dose volume of 0.125 mL/kg and the pharmacokinetic (PK) profile was determined.
# as §1, with “500” for “400”, “16.64” for “19.14”, “35.36” for “40.66”, “43.00” for “35.20”, “0.1” for “0.125”
# (§2) A solution of about 400 mg/mL of the compound of Formula (Ia) having 17.00 w/w % water, 36.40 w/w % PEG 300, 35.20 w/w % of a sodium salt of a compound of Formula (Ia), 5.00 w/w % ethanol, and 6.40 w/w % poloxamer 188 was prepared. The solution was administered subcutaneously to male beagle dogs at a dose level of about 12 mg/kg and male Wistar Han rats at a dose level of about 50 mg/kg. The pharmacokinetic profiles were determined, and the results for dogs are summarized in Table and Table, while the results for rats are summarized in Table and Table below.
# as §2, with “500” for “400”, “14.06” for “17.00”, “30.12” for “36.40”
# A solution of about 300 mg/mL of the compound of Formula (Ia) having 23.33 w/w % water, 48.99 w/w % PEG 300, 26.47 w/w % of a sodium salt of a compound of Formula (Ia), and 1.21 w/w % poloxamer 188 was prepared. The solution was administered subcutaneously to male beagle dogs at a dose level of about 6 mg/kg and male Wistar Han rats at a dose level of about 50 mg/kg. The pharmacokinetic profiles were determined, and the results for dogs are summarized in Table and Table, while the results for rats are summarized in Table and Table below.
# as §2, with “18.80” for “17.00”, “40.25” for “36.40”, “34.38” for “35.20”, “1.57” for “6.40”
# as §2, with “500” for “400”, “16.29” for “17.00”, “34.88” for “36.40”, “41.92” for “35.20”, “1.91” for “6.40”
# A solution of about 400 mg/mL of the compound of Formula (Ia) having 20.90 w/w % water, 44.72 w/w % PEG 300, and 34.38 w/w % of a sodium salt of a compound of Formula (Ia) was prepared. […]
# [1] = n = 5 rats, solution T, 400 mg/mL
smiles,measurement,setting,value
CC(C)(C#Cc1ccc(-c2ccc(Cl)c3c(NS(C)(=O)=O)nn(CC(F)(F)F)c23)c([C@H](Cc2cc(F)cc(F)c2)NC(=O)Cn2nc(C(F)(F)F)c3c2C(F)(F)[C@@H]2C[C@H]32)n1)S(C)(=O)=O [compound of Formula (Ia)],AUC(0-t),"n = 3 rats, solution R, 400 mg/mL, read-out: AUC0-1344h",402 ± 58 µM·h
same,AUC(0-t),"n = 3 rats, solution R, 400 mg/mL, read-out: AUC0-1680h",504 ± 80 µM·h
same,AUC(0-t),"n = 3 rats, solution R, 400 mg/mL, read-out: AUC0-2352h",649 ± 95 µM·h
same,AUC(0-t),"n = 3 rats, solution R, 400 mg/mL, read-out: AUC0-3024h",752 ± 92 µM·h
same,AUC(0-t),"n = 3 rats, solution R, 400 mg/mL, read-out: AUC0-3696h",825 ± 80 µM·h
same,AUC(0-t),"n = 3 rats, solution R, 400 mg/mL, read-out: AUC0-4704h",915 ± 44 µM·h
same,AUC(0-t),"n = 3 rats, solution R, 400 mg/mL, read-out: AUC0-5376h",958 ± 21 µM·h
same,AUC(0-t),"n = 3 rats, solution R, 400 mg/mL, read-out: AUC0-6048h",988 ± 4 µM·h
same,AUC(0-t),"n = 3 rats, solution R, 400 mg/mL, read-out: AUC0-7392h",1020 ± 18 µM·h
same,AUC(0-t),"n = 3 rats, solution R, 400 mg/mL, read-out: AUC0-8064h",1030 ± 25 µM·h
same,Cmax,"n = 3 rats, solution S, 500 mg/mL",328 ± 131 nM
same,AUC(0-t),"n = 3 rats, solution S, 500 mg/mL, read-out: AUC0-24 h",2.47 ± 0.39 µM·h
same,AUC(0-t),"n = 3 rats, solution S, 500 mg/mL, read-out: AUC0-168 h",19.7 ± 3.1 µM·h
same,AUC(0-t),"n = 3 rats, solution S, 500 mg/mL, read-out: AUC0-336 h",44.2 ± 7.5 µM·h
same,AUC(0-t),"n = 3 rats, solution S, 500 mg/mL, read-out: AUC0-672 h",133 ± 40 µM·h
same,AUC(0-t),"n = 3 rats, solution S, 500 mg/mL, read-out: AUC0-1008 h",233 ± 79 µM·h
same,AUC(0-t),"n = 3 rats, solution S, 500 mg/mL, read-out: AUC0-1344 h",334 ± 120 µM·h
same,AUC(0-t),"n = 3 rats, solution S, 500 mg/mL, read-out: AUC0-1680 h",426 ± 148 µM·h
same,AUC(0-t),"n = 3 rats, solution S, 500 mg/mL, read-out: AUC0-2352 h",554 ± 185 µM·h
same,AUC(0-t),"n = 3 rats, solution S, 500 mg/mL, read-out: AUC0-3024 h",652 ± 203 µM·h
same,AUC(0-t),"n = 3 rats, solution S, 500 mg/mL, read-out: AUC0-3696 h",722 ± 216 µM·h
same,AUC(0-t),"n = 3 rats, solution S, 500 mg/mL, read-out: AUC0-4704 h",817 ± 224 µM·h
same,AUC(0-t),"n = 3 rats, solution S, 500 mg/mL, read-out: AUC0-5376 h",861 ± 226 µM·h
same,AUC(0-t),"n = 3 rats, solution S, 500 mg/mL, read-out: AUC0-6048 h",896 ± 220 µM·h
same,AUC(0-t),"n = 3 rats, solution S, 500 mg/mL, read-out: AUC0-6720 h",923 ± 229 µM·h
same,AUC(0-t),"n = 3 rats, solution S, 500 mg/mL, read-out: AUC0-7392 h",945 ± 229 µM·h
same,AUC(0-t),"n = 3 rats, solution S, 500 mg/mL, read-out: AUC0-8064 h",964 ± 228 µM·h
same,AUC(0-t),"n = 3 rats, solution V, 300 mg/mL, read-out: AUC0-24 h",3.66 ± 4.29 µM·h
same,AUC(0-t),"n = 3 rats, solution V, 300 mg/mL, read-out: AUC0-168 h",24.5 ± 5.4 µM·h
same,AUC(0-t),"n = 3 rats, solution V, 300 mg/mL, read-out: AUC0-336 h",50.1 ± 9.2 µM·h
same,AUC(0-t),"n = 3 rats, solution V, 300 mg/mL, read-out: AUC0-672 h",137 ± 27 µM·h
same,AUC(0-t),"n = 3 rats, solution V, 300 mg/mL, read-out: AUC0-1008 h",237 ± 52 µM·h
same,AUC(0-t),"n = 3 rats, solution V, 300 mg/mL, read-out: AUC0-1344 h",331 ± 85 µM·h
same,AUC(0-t),"n = 3 rats, solution V, 300 mg/mL, read-out: AUC0-1680 h",423 ± 96 µM·h
same,AUC(0-t),"n = 3 rats, solution V, 300 mg/mL, read-out: AUC0-2352 h",554 ± 113 µM·h
same,AUC(0-t),"n = 3 rats, solution V, 300 mg/mL, read-out: AUC0-3024 h",646 ± 121 µM·h
same,AUC(0-t),"n = 3 rats, solution V, 300 mg/mL, read-out: AUC0-3696 h",700 ± 121 µM·h
same,AUC(0-t),"n = 3 rats, solution V, 300 mg/mL, read-out: AUC0-4704 h",720 ± 120 µM·h
same,Cmax,[1],450 ± 155 nM
same,AUC(0-t),"n = 5 rats, solution T, 400 mg/mL, read-out: AUC0-24 h",5.49 ± 1.6 µM·h
same,AUC(0-t),"n = 5 rats, solution T, 400 mg/mL, read-out: AUC0-168 h",40.6 ± 15.3 µM·h
same,AUC(0-t),"n = 5 rats, solution T, 400 mg/mL, read-out: AUC0-336 h",76.4 ± 25.3 µM·h
same,AUC(0-t),"n = 5 rats, solution T, 400 mg/mL, read-out: AUC0-672 h",173 ± 75.6 µM·h
same,AUC(0-t),"n = 5 rats, solution T, 400 mg/mL, read-out: AUC0-1008 h",313 ± 157 µM·h
same,AUC(0-t),"n = 5 rats, solution T, 400 mg/mL, read-out: AUC0-1344 h",394 ± 185 µM·h
same,AUC(0-t),"n = 5 rats, solution T, 400 mg/mL, read-out: AUC0-1680 h",485 ± 195 µM·h
same,AUC(0-t),"n = 5 rats, solution T, 400 mg/mL, read-out: AUC0-2352 h",581 ± 146 µM·h
same,AUC(0-t),"n = 5 rats, solution T, 400 mg/mL, read-out: AUC0-3024 h",655 ± 112 µM·h
same,AUC(0-t),"n = 5 rats, solution T, 400 mg/mL, read-out: AUC0-3696 h",679 ± 103 µM·h
same,AUC(0-t),"n = 5 rats, solution T, 400 mg/mL, read-out: AUC0-4704 h",718 ± 88 µM·h
same,AUC(0-t),"n = 5 rats, solution T, 400 mg/mL, read-out: AUC0-5376 h",745 ± 76 µM·h
same,AUC(0-t),"n = 5 rats, solution T, 400 mg/mL, read-out: AUC0-6048 h",766 ± 66 µM·h
same,AUC(0-t),"n = 5 rats, solution T, 400 mg/mL, read-out: AUC0-6720 h",783 ± 59 µM·h
same,Cmax,"n = 5 rats, solution U, 500 mg/mL",362 ± 147 nM
same,AUC(0-t),"n = 5 rats, solution U, 500 mg/mL, read-out: AUC0-24 h",3.74 ± 0.78 µM·h
same,AUC(0-t),"n = 5 rats, solution U, 500 mg/mL, read-out: AUC0-168 h",29.8 ± 7.5 µM·h
same,AUC(0-t),"n = 5 rats, solution U, 500 mg/mL, read-out: AUC0-336 h",63.2 ± 20.7 µM·h
same,AUC(0-t),"n = 5 rats, solution U, 500 mg/mL, read-out: AUC0-672 h",159 ± 77 µM·h
same,AUC(0-t),"n = 5 rats, solution U, 500 mg/mL, read-out: AUC0-1008 h",338 ± 141 µM·h
same,AUC(0-t),"n = 5 rats, solution U, 500 mg/mL, read-out: AUC0-1344 h",409 ± 159 µM·h
same,AUC(0-t),"n = 5 rats, solution U, 500 mg/mL, read-out: AUC0-1680 h",529 ± 194 µM·h
same,AUC(0-t),"n = 5 rats, solution U, 500 mg/mL, read-out: AUC0-2352 h",610 ± 215 µM·h
same,AUC(0-t),"n = 5 rats, solution U, 500 mg/mL, read-out: AUC0-3024 h",669 ± 233 µM·h
same,AUC(0-t),"n = 5 rats, solution U, 500 mg/mL, read-out: AUC0-3696 h",692 ± 233 µM·h
same,AUC(0-t),"n = 5 rats, solution U, 500 mg/mL, read-out: AUC0-4704 h",728 ± 249 µM·h
same,AUC(0-t),"n = 5 rats, solution U, 500 mg/mL, read-out: AUC0-5376 h",756 ± 256 µM·h
same,AUC(0-t),"n = 5 rats, solution U, 500 mg/mL, read-out: AUC0-6048 h",781 ± 261 µM·h
same,AUC(0-t),"n = 5 rats, solution U, 500 mg/mL, read-out: AUC0-6720 h",802 ± 266 µM·h
same,AUC,"n = 3 rats, solution R, 400 mg/mL, read-out: AUC0-6720n",1007 ± 8 µM·h
same,Tmax,[1],18.8 ± 17.5 days
